Counter-ions that a name gives are not always drawn.
Legend:
[1] = system: Collagen-induzierte Thrombozytenaggregation; experiment: Ex vivo inhibition of collagen-induced platelet aggregation after oral administration; type: in vivo, Rhesusaffen; conditions: 1 mg/kg, Rhesus monkeys, collagen 2 µg/ml
Source text: Die Hemmung der Thrombozytenaggregation nach oraler Gabe der Prüfsubstanz wird ex vivo an Rhesusaffen ermittelt.
Direkt vor der oralen Verabreichung der in Natrosol suspendierten Prüfsubstanz wird den Tieren eine Blutprobe aus der Kubitalvene als Referenzwert entnommen. Zu definierten Zeiten nach der Substanzgabe werden erneut Blutproben gewonnen und wie folgt untersucht.
Das mit 3,14% Natriumcitrat im Volumenverhältnis 1:10 versetzte Vollblut wird mit 200 g für 15 Minuten zentrifugiert. Der Überstand an plättchenreichem Plasma wird vorsichtig abgehoben. Aus dem erythrozytenreichen Sediment wird durch Zentrifugation mit 4000 g für 10 Minuten das plättchenarme Plasma als Überstand gewonnen.
Die mit Collagen (Hormonchemie, München; 2 µg/ml Endkonzentration im plättchenreichen Plasma) ausgelöste Thrombozytenaggregation in diesen ex vivo Proben wird nach der Methode von Born und Cross (J. Physiol. 170, 397 (1964)) photometrisch gemessen. Die nach Collagenstimulation gemessene größte Lichtdurchlässigkeit des plättchenreichen Plasmas wird mit dem Referenzwert verglichen, um die Hemmung der Aggregation zu den verschiedenen Zeitpunkten der Blutentnahme nach Substanzgabe relativ zum Referenzwert zu bestimmen.

Humanthrombozyten = experiment: Competitive binding of ³H-BIBU 52 / test substance to human platelets; conditions: platelet suspension in plasma, ³H-BIBU 52 5 nM, 20 min at room temperature; read-out: Kompetitive Bindung ³H-BIBU 52/Textsubstanz an Humanthrombozyten IC₅₀ (converted)
Source text: 1. Kompetitive Bindung ³H-BIBU 52/Testsubstanz an Humanthrombozyten:
Eine Suspension von Humanthrombozyten in Plasma wird mit ³H-BIBU 52 [= (3S,5S)-5-[(4'-Amidino-4-biphenylyl)oxymethyl]-3-[(carboxyl)methyl]-2-pyrrolidinon[3-³H-4-biphenylyl]), das den literaturbekannten Liganden ¹²⁵ I-Fibrinogen ersetzt, (siehe deutsche Patentanmeldung P 42 14 245.8 der gleichen Anmelderin vom 30. 04. 1992, internes Zeichen: Case 5/1093-FL) und verschiedenen Konzentrationen der zu testenden Substanz inkubiert. Der freie und gebundene Ligand wird durch Zentrifugation getrennt und durch Szintillationszählung quantitativ bestimmt. Aus den Meßwerten wird die Hemmung der ³H-BIBU 52-Bindung durch die Testsubstanz bestimmt.
Hierzu wird aus einer Antikubitalvene Spenderblut entnommen und mit Trinatriumzitrat antikoaguliert (Endkonzentration 13 mM). Das Blut wird 10 Minuten bei 170 x g zentrifugiert und das überstehende plättchenreiche Plasma (PRP) abgenommen. Das Restblut wird zur Gewinnung von Plasma nocheinmal scharf abzentrifugiert. Das PRP wird mit autologem Plasma 1:10 verdünnt. 750 µl werden mit 50 µl physiologischer Kochsalzlösung, 100 µl Testsubstanzlösung, 50 µl ¹⁴C-Sucrose (3.700 Bq) und 50 µl ³H-BIBU 52 (Endkonzentration: 5 nM) bei Raumtemperatur 20 Minuten inkubiert. Zur Messung der unspezifischen Bindung wird anstelle der Testsubstanz 5 µl BIBU 52 (Endkonzentration: 30 µM) eingesetzt. Die Proben werden 20 Sekunden bei 10000 x g zentrifugiert und der Überstand abgezogen. 100 µl hiervon werden zur Bestimmung des freien Liganden gemessen. Das Pellet wird in 500 µl 0,2N NaOH gelöst, 450 µl werden mit 2 ml Szintillator und 25 µl 5N HCl versetzt und gemessen. Das im Pellet noch verbliebene Restplasma wird aus dem ¹⁴C-Gehalt bestimmt, der gebundene Ligand aus der ³H-Messung. Nach Abzug der unspezifischen Bindung wird die Pelletaktivität gegen die Konzentration der Testsubstanz aufgetragen und die Konzentration für eine 50%ige Hemmung der Bindung ermittelt.

[2] = Tolerability after intravenous administration to mice; type: in vivo, Mäusen; conditions: 30 mg/kg, 3 mice each
Thrombozytenaggregation = experiment: Collagen-induced platelet aggregation in platelet-rich plasma (Born and Cross); type: cell-based, Versuchspersonen; conditions: 10 min preincubation at 37°C, half-maximal inhibition of change in optical density, read-out: Hemmung der Plättchenaggregation EC₅₀ (converted)
Source text: 2. Antithrombotische Wirkung Methodik Die Thrombozytenaggregation wird nach der Methode von Born und Cross (J. Physiol. 170, 397 (1964)) in plättchenreichem Plasma gesunder Versuchspersonen gemessen. Zur Gerinnungshemmung wird das Blut mit Natriumcitrat 3,14 % im Volumenverhältnis 1:10 versetzt. Collagen-induzierte Aggregation Der Verlauf der Abnahme der optischen Dichte der Plättchen-Suspension wird nach Zugabe der aggregationsauslösenden Substanz photometrisch gemessen und registriert. Aus dem Neigungswinkel der Dichtekurve wird auf die Aggregationsgeschwindigkeit geschlossen. Der Punkt der Kurve, bei dem die größte Lichtdurchlässigkeit vorliegt, dient zur Berechnung der "optical density". Die Collagen-Konzentration wird möglichst gering gewählt, aber doch so, daß sich eine irreversibel verlaufende Reaktionskurve ergibt. Verwendet wird das handelsübliche Collagen der Firma Hormonchemie, München. Vor der Collagen-Zugabe wird das Plasma jeweils 10 Minuten mit der Substanz bei 37°C inkubiert. Aus den Konzentrations-Wirkungskurven wird die EC₅₀ berechnet, die die Konzentration beschreibt, bei der die Änderung der "optical density" halbmaximal gehemmt ist.

Row | Compound | Dauer der Hemmung der Collagen-induzierten Thrombozytenaggregation ex vivo [1] | IC50 (Humanthrombozyten) | gestorbene Tiere [2] | EC50 (Thrombozytenaggregation)
1 | CCCCS(=O)(=O)NC(Cc1ccc(NC(=O)c2cccc(C3CCNCC3)c2)cc1)C(=O)OC.Cl (stereo not shown) [5(2), 4-[3-[[4-[2-(n-Butansulfonylamino)-2-(methoxycarbonyl)-ethyl]-phenyl]-aminocarbonyl]-phenyl]-piperidin-hydrochlorid] | > 2 Stunden |  |  | 
2 | COC(=O)CC[C@H]1CC[C@H](NC(=O)c2ccc(C3CCNCC3)cc2)CC1.Cl [Beispiel 2, 4-[4-[[trans-4-[2-(Methoxycarbonyl)-ethyl]-cyclohexyl]-aminocarbonyl]-phenyl]-piperidin-hydrochlorid] | > 2 Stunden | 1.1 µM | keine Tieren gestorben | 0.84 µM
3 | COC(=O)CCc1ccc(NC(=O)c2ccc(C3CCNCC3)cc2)cc1 [Beispiel 2.1, 4-[4-[[4-[2-(Methoxycarbonyl)-ethyl]-phenyl]-aminocarbonyl]-phenyl]-piperidin-hydrochlorid] |  | > 100 µM |  | 3.3 µM
4 | CCCCS(=O)(=O)NC(Cc1ccc(NC(=O)c2ccc(C3CCNCC3)cc2)cc1)C(=O)OC (stereo not shown) [Beispiel 2.2, 4-[4-[[4-[2-(n-Butansulfonylamino)-2-(methoxycarbonyl)-ethyl]-phenyl]-aminocarbonyl]-phenyl]-piperidin-hydrochlorid] |  | 4.5 µM |  | 3.3 µM
5 | Cl.O=C(O)CC[C@H]1CC[C@H](NC(=O)c2ccc(C3CCNCC3)cc2)CC1 [Beispiel 3, 4-[4-[[trans-4-(2-Carboxy-ethyl)-cyclohexyl]-aminocarbonyl]-phenyl]-piperidin-hydrochlorid] |  | 0.19 µM | keine Tieren gestorben | 0.26 µM
6 | O=C(O)CCc1ccc(NC(=O)c2ccc(C3CCNCC3)cc2)cc1 [Beispiel 3.1, 4-[4-[[4-(2-Carboxy-ethyl)-phenyl]-aminocarbonyl]-phenyl]-piperidin-hydrochlorid] |  | 1.4 µM |  | 2.4 µM
7 | CCCCS(=O)(=O)NC(Cc1ccc(NC(=O)c2ccc(C3CCNCC3)cc2)cc1)C(=O)O (stereo not shown) [Beispiel 3.3, 4-[4-[[4-[2-(n-Butansulfonyl-amino)-2-carboxy-ethyl]-phenyl]-aminocarbonyl]-phenyl]-piperidin-hydrochlorid] |  | 0.017 µM |  | 0.26 µM
8 | O=C(O)CC[C@H]1CC[C@H](NC(=O)c2cccc(C3CCNCC3)c2)CC1 [Beispiel 3.4, 4-[3-[[trans-4-(2-Carboxy-ethyl)-cyclohexyl]-aminocarbonyl]-phenyl]-piperidin-hydrochlorid] |  | 2 µM |  | 5.8 µM
9 | CCCCS(=O)(=O)NC(Cc1ccc(NC(=O)c2cccc(C3CCNCC3)c2)cc1)C(=O)O (stereo not shown) [Beispiel 3.6, 4-[3-[[4-[2-(n-Butansulfonylamino)-2-carboxy-ethyl]-phenyl]-aminocarbonyl]-phenyl]-piperidin-hydrochlorid] |  | 0.014 µM |  | 0.12 µM
10 | COC(=O)CC[C@H]1CC[C@H](NC(=O)c2cccc(C3CCNCC3)c2)CC1 [Beispiel 5, 4-[3-[[trans-4-[2-(Methoxycarbonyl)-ethyl]-cyclohexyl]-aminocarbonyl]-phenyl]-piperidin-hydrochlorid] |  | 2.9 µM |  | 5.6 µM

Reference: patent publication EP0604800A1, “4- 4- 4-(carboxyalkyl)-phenyl amino carbonyl -phenyl -piperedines as aggregation inhibitors” (Dr. Karl Thomae GmbH, priority 1992, dated 1994)
